Results as given in patent US20130004581A1, “CONTROLLING UPTAKE BY CELLS” (Ramot at Tel-Aviv University Ltd., priority 2010, published 2013).

What was measured:
COS 5-7 cells [1] = test: Uptake after one minute of chemically induced low pH (HCl added to HBSS suspension), FACS; type: cell-based, African green monkey; conditions: for Folds Uptake mean: 1 min, 10 μM Dextran-FITC
Experimental: The following tables show a connection between pH and current. […] The values in the tables are shown as folds relative to the uptake in cells unexposed to any of the treatments. […] The results are expected to be substantially independent of cell type and molecule used, except for a cell-specific change and a molecule specific change.
Cells (COS 5-7) were harvested, re-suspended in DMEM (1 mg/ml glucose, 5% FCS), and incubated (37°, 5% CO2) as designated by the experiment. For uploading the cells with either H2DCF-DA (20 μM) or Bis-DHA (1 mM) incubation lasted 90 minutes. When no pre-treatments were required, the cells were kept in the DMEM for 30 minutes. Following incubation, the cells were centrifuged at 400g for 1 min, the solution aspirated, and cells re-suspended in HBSS exposure media.
Exposure of cells to pulse acidification was through the addition of HCl to the HBSS suspension for 60 seconds, terminated by the addition of a three fold larger volume of DMEM-H.
Cell suspensions were centrifuged (400g for one minute), their solutions aspirated and they were re-suspended with 0.5 ml DMEM-H supplemented with 10u/ml dextranase (Sigma-Aldrich) for 10 minutes at RT. Cells were centrifuged again; their solution aspirated and they were re-suspended with 0.2 ml DMEM-H. PI (25 μg/ml) as a label for permeabilized cells and tryphan blue (0.01% w/v) as a fluorescence quenching agent for extracellular FITC (36) were added to each sample shortly before analysis
Flow cytometry analysis was carried out by FACSort (Becton @ Dickson, San Jose, Calif.), employing a 488-nm argon laser excitation. The green fluorescence of FITC was measured via 530/30 nm filter, the red fluorescence of PI was detected via a 585/42 nm filter. […] Ten thousand cells were examined for each sample and data were collected in the list mode. The analysis of flow cytometry data was performed using WINMDI 2.9 software (Joe Trotter, The Scripps Research Institute). For each sample the geometrical mean was calculated without including PI stained cells. Cell intensity was determined as fold of induction relative to cells' constitutive uptake.
After one minute incubation, cell suspensions were immediately diluted with 3 fold larger volume of cold buffered DMEM to restore pH to a normal pH of 7.5.

COS 5-7 cells [2] = test: Uptake after one minute of electric pulse train (EPT) in three-compartment device, FACS; type: cell-based, African green monkey; conditions: for Folds Uptake mean: electric field 200 mA/cm^2; for Folds Uptake mean / Folds Uptake Fold: 1 min, 10 μM Dextran-FITC; for Folds Uptake Fold: relative to unexposed cells
Experimental: Exposure of cells to low-intensity trains of unipolar rectangular voltage pulses was carried in a three-compartment exposure set-up where the anode and cathode were connected to an electric pulse generator (Grass S44 Stimulator). The exposure set-up consisted of a rectangular chamber made from polystyrene, 15 mm long, 10 mm wide, with 0.5 cm^2 area platinum electrodes positioned on the extreme sides (see FIG. 15). The chamber is divided by two porous membranes (PolyEtherSulfon, 0.8 μm pores, 200 μm depth), into three distinct and equal compartments: anode, cathode and center ones. The electric field parameters applied were monitored on line by recording the voltage and the current (by means of a wide band current probe, Pearson) on an oscilloscope. Typically, a cell suspension (1*10^6 cells/ml) is exposed to a train of electric pulses consisting of unipolar rectangular pulses with duration of 180 μs, frequency of 500 Hz for the total time of exposure of one minute.
Flow cytometry analysis was carried out by FACSort (Becton @ Dickson, San Jose, Calif.), employing a 488-nm argon laser excitation. […] Ten thousand cells were examined for each sample and data were collected in the list mode. The analysis of flow cytometry data was performed using WINMDI 2.9 software (Joe Trotter, The Scripps Research Institute). For each sample the geometrical mean was calculated without including PI stained cells. Cell intensity was determined as fold of induction relative to cells' constitutive uptake.

HaCaT cells = test: Proton induced uptake (PIU) in HaCaT cells, FACS; type: cell-based, human; conditions: pH 5.25; pulse label for last 5 minutes
Experimental: FIG. 6 is a chart showing PIU of molecules different by size and charge, in accordance with some embodiments of the invention. Hacat cultures were exposed to solutions of pH 5.2 or pH 7.4 for 5 minutes period, in the presence of different fluorescence molecules (All at 25 μM concentration). FACS analysis results (FL1, geometrical mean±SD) for the cell cultures exposed to pH 5.2 are presented as fold induction relative to results obtained for cells exposed to pH 7.4. This can be used, in some embodiments of the invention, to assess effect of molecule size and charge on uptake.
FIGS. 7A-7B are charts showing the comparison of PIU in adherent and suspended HaCaT cells, in accordance with some embodiments of the invention. For FIG. 7A, HaCaT cells were tested either at their adherent state, or following harvest at a suspended state. […] FACS analyses (FL1) in terms of geometrical mean±SD are presented as fold induction relative to the constitutive uptake at physiological pH 7.4. n=9 in 3 independent experiments. For FIG. 7B, HaCaT Cells were cultivated at low, medium or high cell density. […] The cultures were harvested and undergone FACS analyses (FL1) in terms of geometrical mean±SD and are presented as fold induction relative to the constitutive uptake of low density cultures. Statistical significance was tested against the confluent culture, n=9 in 3 independent experiments. In the charts, * indicates a t-test p<0.05; and ** indicates a t-test p<0.01. This can be used, in some embodiments of the invention, to assess effect of cell membrane rigidity and/or tissue structure on uptake.
FIGS. 12A-12B are a chart and images which show the relative change of PIU by modifiers of actin cytoskeleton organization, in accordance with some embodiments of the invention. […].

Caco2/TC7 cells = test: Proton induced uptake (PIU) in Caco2/TC7 cells, FACS; type: cell-based; conditions: pH 5; 5 minutes; P<0.001
Experimental: Caco-2 cells were cultivated, and were harvested when reaching 80% confluence by the use of trypsin-EDTA. The cell suspensions were immediately diluted in full medium (DMEM with 4.5 mg/ml glucose, 10% FCS), centrifuged and re-suspended in recovery medium (HBSS or PBS).
Once exposure is terminated the suspension is transferred to a small vial where it is either incubated at 37° C. or immediately cooled down to 4° C. All samples are collected together on ice and then simultaneously analyzed.
Acidification is imposed by supplementing the suspension with 10 mM MES buffer and the concentrations of HCl required for reaching the experimental pH level.
The cells are washed by being centrifuged, re-suspended with fresh DMEM (without phenol-red or FCS), incubated at room temperature with probe specific digestive enzymes, where appropriate, centrifuged and washed again.
For FACS analysis, Trypan-blue (0.01%) and PI (2 μg/ml) are added to the cells suspension to quench residual extracellular fluorescence and stain necrotic cells, respectively.

COS 5-7 cells [3] = test: Proton induced uptake (PIU) in adherent COS 5-7 cultures, 5 minutes, FACS; type: cell-based, African green monkey; conditions: pH 5, P<0.001
From the text: Uptake, based on flow cytometry, is plotted as function of the external pH from 3 independent experiments per cell line.
FIG. 1A is shown the Extent of uptake in terms of FITC intensity geometrical mean±SD is presented as fold induction relative to the constitutive uptake at physiological pH 7.4. In FIG. 1B is shown the PI (a necrotic cell marker) stained cells fraction±SD (%) relative to unexposed control population. In FIG. 1C is shown the FITC geometrical mean±SD presented as fold induction relative to the constitutive uptake at physiological pH 7.4.

In the case of Dextran-FITC, the “Folds Uptake mean” value (COS 5-7 cells [1]; pH 1.6, relative to unexposed cells) is reported as 48.09 folds, the “Folds Uptake mean” value (COS 5-7 cells [1]; pH 1.9, relative to unexposed cells) is reported as 42.47 folds and the “Folds Uptake mean” value (COS 5-7 cells [1]; pH 2.5, relative to unexposed cells) is reported as 47.62 folds. For the same substance, the “Folds Uptake mean” value (COS 5-7 cells [1]; pH 2.9, relative to unexposed cells) was 45.54 folds, the “Folds Uptake mean” value (COS 5-7 cells [1]; pH 3.1, relative to unexposed cells) was 41.25 folds and the “Folds Uptake mean” value (COS 5-7 cells [1]; pH 3.3, relative to unexposed cells) was 20.14 folds. For the same substance, the “Folds Uptake mean” value (COS 5-7 cells [1]; pH 3.5, relative to unexposed cells) was 9.575 folds, the “Folds Uptake mean” value (COS 5-7 cells [1]; pH 3.7, relative to unexposed cells) was 7.679 folds and the “Folds Uptake mean” value (COS 5-7 cells [1]; pH 4, relative to unexposed cells) was 4.776 folds. The “Folds Uptake mean” value (COS 5-7 cells [1]; pH 4.7, relative to unexposed cells) was 3.856 folds, the “Folds Uptake mean” value (COS 5-7 cells [1]; pH 5, relative to unexposed cells) was 2.594 folds and the “Folds Uptake mean” value (COS 5-7 cells [1]; pH 5.8, relative to unexposed cells) was 2.636 folds. The “Folds Uptake mean” value (COS 5-7 cells [1]; pH 6, relative to unexposed cells) was 1.483 folds, the “Folds Uptake mean” value (COS 5-7 cells [1]; pH 6.25, relative to unexposed cells) was 1.619 folds and the “Folds Uptake mean” value (COS 5-7 cells [1]; pH 7.4 (reference)) was 1 folds. For the same substance, the “pH at which uptake reaches saturation” value (COS 5-7 cells [1]; steep elevation of uptake starting at pH 4) was 3 pH, the “Folds Uptake mean” value (COS 5-7 cells [2]; 60 mM HEPES in HBSS) was 51.98 folds and the “Folds Uptake mean” value (COS 5-7 cells [2]; 70 mM HEPES in HBSS) was 48.84 folds. For the same substance, the “Folds Uptake mean” value (COS 5-7 cells [2]; 80 mM HEPES in HBSS) was 14.86 folds, the “Folds Uptake mean” value (COS 5-7 cells [2]; 90 mM HEPES in HBSS) was 12.81 folds and the “Folds Uptake mean” value (COS 5-7 cells [2]; 100 mM HEPES in HBSS) was 10.06 folds. For the same substance, the “Folds Uptake mean” value (COS 5-7 cells [2]; 120 mM HEPES in HBSS) was 4.613 folds, the “Folds Uptake mean” value (COS 5-7 cells [2]; 150 mM HEPES in HBSS) was 3.106 folds and the “Folds Uptake Fold” value (COS 5-7 cells [2]; 10 V/cm, 80 mA/cm^2) was 1.62 folds. For the same substance, the “Folds Uptake Fold” value (COS 5-7 cells [2]; 13.3 V/cm, 120 mA/cm^2) was 2.449 folds, the “Folds Uptake Fold” value (COS 5-7 cells [2]; 16.6 V/cm, 160 mA/cm^2) was 6.017 folds and the “Folds Uptake Fold” value (COS 5-7 cells [2]; 20 V/cm, 80 mA/cm^2) was 1.824 folds. For the same substance, the “Folds Uptake Fold” value (COS 5-7 cells [2]; 20 V/cm, 120 mA/cm^2) was 3.015 folds, the “Folds Uptake Fold” value (COS 5-7 cells [2]; 20 V/cm, 160 mA/cm^2) was 5.476 folds and the “Folds Uptake Fold” value (COS 5-7 cells [2]; 20 V/cm, 200 mA/cm^2, 100 mM HEPES) was 9.134 folds. The “Folds Uptake Fold” value (COS 5-7 cells [2]; 26.6 V/cm, 200 mA/cm^2) was 11.73 folds, the “Folds Uptake Fold” value (COS 5-7 cells [2]; 33.3 V/cm, 200 mA/cm^2) was 10.49 folds and the “Folds Uptake Fold” value (COS 5-7 cells [2]; 46.6 V/cm, 80 mA/cm^2) was 1.694 folds. For the same substance, the “Folds Uptake Fold” value (COS 5-7 cells [2]; 46.6 V/cm, 160 mA/cm^2) was 6.34 folds, the “Folds Uptake Fold” value (COS 5-7 cells [2]; 66.6 V/cm, 120 mA/cm^2) was 3.447 folds and the “increase in cellular uptake in the anodic compartment” value (COS 5-7 cells [2]; train of electric pulses 20V/cm, 200 mA/cm^2, anodic compartment only, relative to constitutive uptake) was 10 fold. For the same substance, the “initial PIU rate of adherent cultures, folds lower than suspended cells” value (HaCaT cells) was 2.5 folds, the “dextran concentration relative to HT29 cells” value (Caco2/TC7 cells) was 2 folds and the “dextran concentration relative to HT29 cells” value (COS 5-7 cells [3]) was 2 folds.
